Molecular target: human PDE1B enzyme (Homo sapiens (Human), UniProt Q01064)
Test: IMAP TR-FRET PDE1B enzymatic assay
Format: biochemical
Conditions: negative log of half-maximal molar inhibitory concentration, 200 nM FAM-cAMP, values given as bins; for IC50: read-out: PDE1b (pIC50) (converted)
Method in brief: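 Full-length GST-tagged human PDE1B (250 pg/well) in IMAP BSA buffer with 10 U/ml calmodulin and 2.5 mM CaCl2; compound pre-incubated 5 min at room temperature, then 200 nM (final) FAM-cAMP for 30 min. IMAP binding reagent/Tb added, 1 h; TR-FRET 520/490 ratio read. IC50 from sigmoidal dose-response fit.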

| Structure (SMILES) | IC50 | PDE1b (pIC50) |
| --- | --- | --- |
| Cc1oc2ncnc(NC3(C)CC3)c2c1C(=O)Nc1ccc(C2CCOCC2)nc1 [Example 735, 6-Methyl-4-[(1-methylcyclopropyl)amino]-N-[6-(oxan-4-yl)pyridin-3-yl]furo[2,3-d]pyrimidine-5-carboxamide] | 100 to 1000 nM |  |
| Cc1oc2ncnc(NC3(C)CC3)c2c1C(=O)Nc1cnc(C2CCOCC2)cn1 [Example 736, 6-Methyl-4-[(1-methylcyclopropyl)amino]-N-[5-(oxan-4-yl)pyrazin-2-yl]furo[2,3-d]pyrimidine-5-carboxamide] | 10 to 100 nM |  |
| Cc1oc2ncnc(NC3(C)CC3)c2c1C(=O)NCc1cccc(N2CCOCC2)n1 [Example 737, 6-Methyl-4-[(1-methylcyclopropyl)amino]-N-{[6-(morpholin-4-yl)pyridin-2-yl]methyl}furo[2,3-d]pyrimidine-5-carboxamide] | 10 to 100 nM |  |
| Cc1oc2ncnc(NC3(C)CC3)c2c1C(=O)NCc1nnn(C)n1 [Example 738, 6-Methyl-N-[(2-methyl-2H-1,2,3,4-tetrazol-5-yl)methyl]-4-[(1-methylcyclopropyl)amino]furo[2,3-d]pyrimidine-5-carboxamide] | 10 to 100 nM |  |
| Cc1oc2ncnc(NC3(C)CC3)c2c1C(=O)NCc1csc(N2CCOCC2)n1 [Example 739, 6-Methyl-4-[(1-methylcyclopropyl)amino]-N-{[2-(morpholin-4-yl)-1,3-thiazol-4-yl]methyl}furo[2,3-d]pyrimidine-5-carboxamide] | 10 to 100 nM |  |
| Cc1oc2ncnc(NC3(C)CC3)c2c1C(=O)NCc1cnn(C)n1 [Example 740, 6-Methyl-N-[(2-methyl-2H-1,2,3-triazol-4-yl)methyl]-4-[(1-methylcyclopropyl)amino]furo[2,3-d]pyrimidine-5-carboxamide] | 10 to 100 nM |  |
| Cc1oc2ncnc(NC3(C)CC3)c2c1C(=O)NCc1ncn(C)n1 [Example 741, 6-Methyl-N-[(1-methyl-1H-1,2,4-triazol-3-yl)methyl]-4-[(1-methylcyclopropyl)amino]furo[2,3-d]pyrimidine-5-carboxamide] | 10 to 100 nM |  |
| Cc1oc2ncnc(NC3(C)CC3)c2c1C(=O)N1Cc2cc(Br)cnc2C1 [Example 742, 5-{3-Bromo-5H,6H,7H-pyrrolo[3,4-b]pyridine-6-carbonyl}-6-methyl-N-(1-methylcyclopropyl)furo[2,3-d]pyrimidin-4-amine] | 10 to 100 nM |  |
| Cc1ncc(CNC(=O)c2c(C)oc3ncnc(NC4(C)CC4)c23)s1 [Example 743, 6-Methyl-N-[(2-methyl-1,3-thiazol-5-yl)methyl]-4-[(1-methylcyclopropyl)amino]furo[2,3-d]pyrimidine-5-carboxamide] |  | >8 |
| Cc1ncc(CNC(=O)c2c(C)oc3ncnc(NC4(C)CC4)c23)o1 [Example 744, 6-Methyl-N-[(2-methyl-1,3-oxazol-5-yl)methyl]-4-[(1-methylcyclopropyl)amino]furo[2,3-d]pyrimidine-5-carboxamide] | 10 to 100 nM |  |
| Cc1oc2ncnc(NC3(C)CC3)c2c1C(=O)NCc1ccc(N2CCOCC2)nn1 [Example 745, 6-Methyl-4-[(1-methylcyclopropyl)amino]-N-{[6-(morpholin-4-yl)pyridazin-3-yl]methyl}furo[2,3-d]pyrimidine-5-carboxamide] | 10 to 100 nM |  |
| Cc1oc2ncnc(NC3(C)CC3)c2c1C(=O)NCC1CC1 [Example 746, N-(Cyclopropylmethyl)-6-methyl-4-[(1-methylcyclopropyl)amino]furo[2,3-d]pyrimidine-5-carboxamide] | 10 to 100 nM |  |
| Cc1nc(CNC(=O)c2c(C)oc3ncnc(NC4(C)CC4)c23)co1 [Example 747, 6-Methyl-N-[(2-methyl-1,3-oxazol-4-yl)methyl]-4-[(1-methylcyclopropyl)amino]furo[2,3-d]pyrimidine-5-carboxamide] | 10 to 100 nM |  |
| Cc1oc2ncnc(NC3(C)CC3)c2c1C(=O)N1Cc2cc(C3CCOCC3)cnc2C1 [Example 748, 6-Methyl-N-(1-methylcyclopropyl)-5-[3-(oxan-4-yl)-5H,6H,7H-pyrrolo[3,4-b]pyridine-6-carbonyl]furo[2,3-d]pyrimidin-4-amine] | 100 to 1000 nM |  |
| Cc1oc2ncnc(NC3(C)CC3)c2c1C(=O)NC(C)c1ncco1 (stereo not drawn) [Example 749, 6-Methyl-4-[(1-methylcyclopropyl)amino]-N-[1-(1,3-oxazol-2-yl)ethyl]furo[2,3-d]pyrimidine-5-carboxamide] | 100 to 1000 nM |  |
| Cc1oc2ncnc(NC3(C)CC3)c2c1C(=O)NC(C)c1ccon1 (stereo not drawn) [Example 750, 6-Methyl-4-[(1-methylcyclopropyl)amino]-N-[1-(1,2-oxazol-3-yl)ethyl]furo[2,3-d]pyrimidine-5-carboxamide] | 10 to 100 nM |  |
| Cc1oc2ncnc(NC3(C)CC3)c2c1C(=O)NCc1nc2cc(F)ccc2o1 [Example 751, N-[(5-Fluoro-1,3-benzoxazol-2-yl)methyl]-6-methyl-4-[(1-methylcyclopropyl)amino]furo[2,3-d]pyrimidine-5-carboxamide] |  | >8 |

| Structure (SMILES) | IC50 | PDE1b (pIC50) |
| --- | --- | --- |
| Cc1oc2ncnc(NC3(C)CC3)c2c1C(=O)NCCCN1CCCC1 [Example 752, 6-Methyl-4-[(1-methylcyclopropyl)amino]-N-[3-(pyrrolidin-1-yl)propyl]furo[2,3-d]pyrimidine-5-carboxamide] |  | <6 |
| Cc1oc2ncnc(NC3(C)CC3)c2c1C(=O)Nc1ccc(N2CCOCC2)nc1 [Example 753, 6-Methyl-4-[(1-methylcyclopropyl)amino]-N-[6-(morpholin-4-yl)pyridin-3-yl]furo[2,3-d]pyrimidine-5-carboxamide] | 100 to 1000 nM |  |
| Cc1oc2ncnc(NC3(C)CC3)c2c1C(=O)NCCC(F)(F)F [Example 754, 6-Methyl-4-[(1-methylcyclopropyl)amino]-N-(3,3,3-trifluoropropyl)furo[2,3-d]pyrimidine-5-carboxamide] | 10 to 100 nM |  |
| Cc1oc2ncnc(NC3(C)CC3)c2c1C(=O)NCC1CC1(F)F (stereo not drawn) [Example 755, N-[(2,2-Difluorocyclopropyl)methyl]-6-methyl-4-[(1-methylcyclopropyl)amino]furo[2,3-d]pyrimidine-5-carboxamide] | 10 to 100 nM |  |
| Cc1oc2ncnc(NC3(C)CC3)c2c1C(=O)NCCN=S(C)(C)=O [Example 756, N-(2-{[Dimethyl(oxo)-λ^6-sulfanylidene]amino}ethyl)-6-methyl-4-[(1-methylcyclopropyl)amino]furo[2,3-d]pyrimidine-5-carboxamide] | 100 to 1000 nM |  |
| Cc1oc2ncnc(NC3(C)CC3)c2c1C(=O)Nc1cnc(N2C[C@@H](C)O[C@@H](C)C2)nc1 [Example 759, N-{2-[(2R,6S)-2,6-Dimethylmorpholin-4-yl]pyrimidin-5-yl}-6-methyl-4-[(1-methylcyclopropyl)amino]furo[2,3-d]pyrimidine-5-carboxamide] | 100 to 1000 nM |  |
| Cc1coc(CNC(=O)c2c(C)oc3ncnc(NC4(C)CC4)c23)n1 [Example 760, 6-Methyl-N-[(4-methyl-1,3-oxazol-2-yl)methyl]-4-[(1-methylcyclopropyl)amino]furo[2,3-d]pyrimidin-5-carboxamide] | 10 to 100 nM |  |
| Cc1oc2ncnc(NC3(C)CC3)c2c1C(N)=O [Example 761, 6-Methyl-4-[(1-methylcyclopropyl)amino]furo[2,3-d]pyrimidin-5-carboxamide] | 100 to 1000 nM |  |
| Cc1oc2ncnc(NC3(C)CC3)c2c1C(=O)N1CCc2c(ncnc2NC(C)C)C1 [Example 762, 6-Methyl-N-(1-methylcyclopropyl)-5-f{4-[(propan-2-yl)amino]-5H,6H,7H,8H-pyrido[3,4-d]pyrimidine-7-carbonyl}furo[2,3-d]pyrimidin-4-amine] |  | >8 |
| Cc1oc2ncnc(NC3(C)CC3)c2c1C(=O)N1CCc2c(OCF)ccnc2C1 [Example 763, 5-[4-(Fluoromethoxy)-5,6,7,8-tetrahydro-1,7-naphthyridine-7-carbonyl]-6-methyl-N-(1-methylcyclopropyl)furo[2,3-d]pyrimidin-4-amine] |  | >8 |
| Cc1oc2ncnc(NC3(C)CC3)c2c1C(=O)N1CCc2c(cccc2OCF)C1 [Example 764, 5-[5-(Fluoromethoxy)-1,2,3,4-tetrahydroisoquinoline-2-carbonyl]-6-methyl-N-(1-methylcyclopropyl)furo[2,3-d]pyrimidin-4-amine] |  | >8 |
| Cc1oc2ncnc(NC3(C)CC3)c2c1C(=O)N1CCc2cc(OCF)ccc2C1 [Example 765, 5-[6-(Fluoromethoxy)-1,2,3,4-tetrahydroisoquinoline-2-carbonyl]-6-methyl-N-(1-methylcyclopropyl)furo[2,3-d]pyrimidin-4-amine] |  | >8 |
| Cc1oc2ncnc(NC3(C)CC3)c2c1C(=O)N1CCc2cccc(OCF)c2C1 [Example 766, 5-[8-(Fluoromethoxy)-1,2,3,4-tetrahydroisoquinoline-2-carbonyl]-6-methyl-N-(1-methylcyclopropyl)furo[2,3-d]pyrimidin-4-amine] | 10 to 100 nM |  |
| Cc1oc2ncnc(NC3(C)CC3)c2c1C(=O)N1CCc2ccc(OCF)cc2C1 [Example 767, 5-[7-(Fluoromethoxy)-1,2,3,4-tetrahydroisoquinoline-2-carbonyl]-6-methyl-N-(1-methylcyclopropyl)furo[2,3-d]pyrimidin-4-amine] | 10 to 100 nM |  |
| Cc1oc2ncnc(NC3(C)CC3)c2c1C(=O)N1CCc2ncc(OCF)cc2C1 [Example 768, 5-[3-(Fluoromethoxy)-5,6,7,8-tetrahydro-1,6-naphthyridine-6-carbonyl]-6-methyl-N-(1-methylcyclopropyl)furo[2,3-d]pyrimidin-4-amine] | 10 to 100 nM |  |
| Cc1oc2ncnc(NC3(C)CC3)c2c1C(=O)N1CCc2c(ccnc2OCF)C1 [Example 769, 5-[5-(Fluoromethoxy)-1,2,3,4-tetrahydro-2,6-naphthyridine-2-carbonyl]-6-methyl-N-(1-methylcyclopropyl)furo[2,3-d]pyrimidin-4-amine] | 10 to 100 nM |  |
